Test results reported in patent publication US10538487B2, “Sulfonylureas and related compounds and use of same” (priority 2015, dated 2020).
Read-outs that look alike come from different tables or passages of the source.

Experiment: Single dose pharmacokinetic study in mice (iv 4 mg/Kg, po 20 mg/Kg), plasma concentration post-dosing
Format: in vivo, mouse
Details: male, C57BL/6, mouse, plasma, mouse; for concentration at 5 min: 5 min post dosing; for concentration at 0.25 h: 0.250 h post dosing; for concentration at 0.5 h: 0.500 h post dosing; for concentration at 1 h: 1.00 h post dosing; for concentration at 2 h: 2.00 h post dosing; for concentration at 4 h: 4.00 h post dosing; for concentration at 8 h: 8.00 h post dosing; for concentration at 24 h: 24.0 h post dosing
Protocol: This is advantageous leading to comparatively lower doses or less frequent administration. The procedure followed was: Male C57BL/6 mice were used at 7-9 weeks age with 3 animals per group. Mice were dosed with test compound using single intravenous bolus or oral gavage. Blood samples were taken via submandibular or saphenous vein for analysis of plasma concentrations of compound by LC-MS/MS at the following timepoints: IV (3 mice): 0.083, 0.25, 0.5, 1, 2, 4, 8 and 24 hours post dosing, PO (3 mice): 0.25, 0.5, 1, 2, 4, 8 and 24 hours post dosing. LC-MS/MS method for the quantitative determination of test compound in corresponding biological matrix was developed. […] The results are shown graphically in FIGS. 1A to 1C (MCC950) and FIGS. 2A to 2C (MCC7840).

CC(C)(O)c1coc(S(=O)(=O)NC(=O)Nc2c3c(cc4c2CCC4)CCC3)c1 [MCC_000950_016, N-((1,2,3,5,6,7-hexahydro-s-indacen-4-yl)carbamoyl)-4-(2-hydroxypropan-2-yl)furan-2-sulfonamide, reference compound] showed a concentration at 5 min (iv, 4 mg/kg, IV 4 mg/Kg, individual mice M1-M3, read-out: Plasma concentration, IV Time 0.0833 h) of 20200 ng/mL, a concentration at 5 min (iv, 4 mg/kg, IV 4 mg/Kg, mean of 3 mice, read-out: Plasma concentration, IV Time 0.0833 h, Mean IV) of 18400 ng/mL and a concentration at 0.25 h (iv, 4 mg/kg, IV 4 mg/Kg, individual mice M1-M3, read-out: Plasma concentration, IV Time 0.250 h) of 16000 ng/mL. For the same compound, the concentration at 0.25 h (iv, 4 mg/kg, IV 4 mg/Kg, mean of 3 mice, read-out: Plasma concentration, IV Time 0.250 h, Mean IV) was 13000 ng/mL, the concentration at 0.5 h (iv, 4 mg/kg, IV 4 mg/Kg, individual mice M1-M3, read-out: Plasma concentration, IV Time 0.500 h) was 11700 ng/mL and the concentration at 0.5 h (iv, 4 mg/kg, IV 4 mg/Kg, mean of 3 mice, read-out: Plasma concentration, IV Time 0.500 h, Mean IV) was 10500 ng/mL. The concentration at 1 h (iv, 4 mg/kg, IV 4 mg/Kg, individual mice M1-M3, read-out: Plasma concentration, IV Time 1.00 h) was 9340 ng/mL, the concentration at 1 h (iv, 4 mg/kg, IV 4 mg/Kg, mean of 3 mice, read-out: Plasma concentration, IV Time 1.00 h, Mean IV) was 8430 ng/mL and the concentration at 2 h (iv, 4 mg/kg, IV 4 mg/Kg, individual mice M1-M3, read-out: Plasma concentration, IV Time 2.00 h) was 7410 ng/mL. It also gave a concentration at 2 h (iv, 4 mg/kg, IV 4 mg/Kg, mean of 3 mice, read-out: Plasma concentration, IV Time 2.00 h, Mean IV) of 6140 ng/mL, a concentration at 4 h (iv, 4 mg/kg, IV 4 mg/Kg, individual mice M1-M3, read-out: Plasma concentration, IV Time 4.00 h) of 3280 ng/mL and a concentration at 4 h (iv, 4 mg/kg, IV 4 mg/Kg, mean of 3 mice, read-out: Plasma concentration, IV Time 4.00 h, Mean IV) of 2600 ng/mL. It also gave a concentration at 8 h (iv, 4 mg/kg, IV 4 mg/Kg, individual mice M1-M3, read-out: Plasma concentration, IV Time 8.00 h) of 905 ng/mL, a concentration at 8 h (iv, 4 mg/kg, IV 4 mg/Kg, mean of 3 mice, read-out: Plasma concentration, IV Time 8.00 h, Mean IV) of 743 ng/mL and a concentration at 24 h (iv, 4 mg/kg, IV 4 mg/Kg, individual mice M1-M3, read-out: Plasma concentration, IV Time 24.0 h) of 3.29 ng/mL. For the same compound, the concentration at 24 h (iv, 4 mg/kg, IV 4 mg/Kg, mean of 3 mice, read-out: Plasma concentration, IV Time 24.0 h, Mean IV) was 2.65 ng/mL, the AUC0-inf (iv, 4 mg/kg, IV 4 mg/Kg, individual mice M1-M3, read-out: AUC0-inf) was 41900 ng·h/mL and the AUC(0-t) (iv, 4 mg/kg, IV 4 mg/Kg, individual mice M1-M3, read-out: AUC0-last) was 41900 ng·h/mL. For the same compound, the C0 (iv, 4 mg/kg, IV 4 mg/Kg, individual mice M1-M3, read-out: C0) was 22700 ng/mL, the clearance (iv, 4 mg/kg, IV 4 mg/Kg, individual mice M1-M3, read-out: Cl) was 1.59 mL/min/kg and the MRT inf (iv, 4 mg/kg, IV 4 mg/Kg, individual mice M1-M3, read-out: MRT0-inf) was 2.78 h. It also gave an MRT last (iv, 4 mg/kg, IV 4 mg/Kg, individual mice M1-M3, read-out: MRT0-last) of 2.77 h, a half-life (iv, 4 mg/kg, IV 4 mg/Kg, individual mice M1-M3, read-out: T1/2 (converted)) of 2 h and a Vd (iv, 4 mg/kg, IV 4 mg/Kg, individual mice M1-M3, read-out: Vdss) of 0.265 L/kg. The AUC0-inf (iv, 4 mg/kg, IV 4 mg/Kg, mean of 3 mice, read-out: AUC0-inf, Mean IV) was 35400 ng·h/mL, the AUC(0-t) (iv, 4 mg/kg, IV 4 mg/Kg, mean of 3 mice, read-out: AUC0-last, Mean IV) was 35400 ng·h/mL and the clearance (iv, 4 mg/kg, IV 4 mg/Kg, mean of 3 mice, read-out: Cl, Mean IV) was 1.92 mL/min/kg. It also gave an MRT inf (iv, 4 mg/kg, IV 4 mg/Kg, mean of 3 mice, read-out: MRT0-inf, Mean IV) of 2.67 h, an MRT last (iv, 4 mg/kg, IV 4 mg/Kg, mean of 3 mice, read-out: MRT0-last, Mean IV) of 2.67 h and a half-life (iv, 4 mg/kg, IV 4 mg/Kg, mean of 3 mice, read-out: T1/2, Mean IV (converted)) of 2 h. For the same compound, the Vd (iv, 4 mg/kg, IV 4 mg/Kg, mean of 3 mice, read-out: Vdss, Mean IV) was 0.306 L/kg, the concentration at 0.25 h (po, 20 mg/kg, PO 20 mg/Kg, mean of 3 mice, read-out: Plasma concentration, PO Time 0.250 h, Mean PO) was 33300 ng/mL and the concentration at 0.5 h (po, 20 mg/kg, PO 20 mg/Kg, individual mice M4-M6, read-out: Plasma concentration, PO Time 0.500 h) was 20400 ng/mL. It also gave a concentration at 0.5 h (po, 20 mg/kg, PO 20 mg/Kg, mean of 3 mice, read-out: Plasma concentration, PO Time 0.500 h, Mean PO) of 30100 ng/mL, a concentration at 1 h (po, 20 mg/kg, PO 20 mg/Kg, individual mice M4-M6, read-out: Plasma concentration, PO Time 1.00 h) of 19300 ng/mL and a concentration at 1 h (po, 20 mg/kg, PO 20 mg/Kg, mean of 3 mice, read-out: Plasma concentration, PO Time 1.00 h, Mean PO) of 30000 ng/mL. The concentration at 2 h (po, 20 mg/kg, PO 20 mg/Kg, individual mice M4-M6, read-out: Plasma concentration, PO Time 2.00 h) was 18500 ng/mL, the concentration at 2 h (po, 20 mg/kg, PO 20 mg/Kg, mean of 3 mice, read-out: Plasma concentration, PO Time 2.00 h, Mean PO) was 22400 ng/mL and the concentration at 4 h (po, 20 mg/kg, PO 20 mg/Kg, individual mice M4-M6, read-out: Plasma concentration, PO Time 4.00 h) was 10200 ng/mL. For the same compound, the concentration at 4 h (po, 20 mg/kg, PO 20 mg/Kg, mean of 3 mice, read-out: Plasma concentration, PO Time 4.00 h, Mean PO) was 11200 ng/mL, the concentration at 8 h (po, 20 mg/kg, PO 20 mg/Kg, individual mice M4-M6, read-out: Plasma concentration, PO Time 8.00 h) was 4330 ng/mL and the concentration at 8 h (po, 20 mg/kg, PO 20 mg/Kg, mean of 3 mice, read-out: Plasma concentration, PO Time 8.00 h, Mean PO) was 3790 ng/mL. For the same compound, the concentration at 24 h (po, 20 mg/kg, PO 20 mg/Kg, mean of 3 mice, read-out: Plasma concentration, PO Time 24.0 h, Mean PO) was 39.1 ng/mL, the AUC0-inf (po, 20 mg/kg, PO 20 mg/Kg, individual mice M4-M6, read-out: AUC0-inf) was 108000 ng·h/mL and the AUC(0-t) (po, 20 mg/kg, PO 20 mg/Kg, individual mice M4-M6, read-out: AUC0-last) was 108000 ng·h/mL. It also gave an MRT inf (po, 20 mg/kg, PO 20 mg/Kg, individual mice M4-M6, read-out: MRT0-inf) of 4.31 h, an MRT last (po, 20 mg/kg, PO 20 mg/Kg, individual mice M4-M6, read-out: MRT0-last) of 4.26 h and a half-life (po, 20 mg/kg, PO 20 mg/Kg, individual mice M4-M6, read-out: T1/2 (converted)) of 2.67 h. It also gave a Tmax (po, 20 mg/kg, PO 20 mg/Kg, individual mice M4-M6, read-out: Tmax) of 0.25 h.
